Measured values published in ChEMBL document CHEMBL1201862, “PubChem BioAssay data set” (2004).
Blank lines part the entries; values can stand above or below the molecule they belong to. The source made the active and inactive calls.

Experiments:
[1] = target: DNA dC->dU-editing enzyme APOBEC-3G (Homo sapiens, UniProt Q9HC16); assay type: functional;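 further: Dose-response counterscreen measuring inhibition of APOBEC3G DNA deaminase activity, run while confirming APOBEC3A inhibitors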
[2] = NIH3T3 cell viability loss – ATP luminescence, mouse fibroblasts, counter-screen, dose response (AID 2010); assay type: functional, cell-based;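 further: cells exposed to compound for about 90 hours before reading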
[3] = Trypanosoma cruzi growth suppression in host cells – NIH3T3 host cells, beta-gal luminescence, confirmation (AID 2044); assay type: functional, cell-based;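 further: intracellular parasites grown in NIH/3T3 mouse fibroblasts as host cells; luminescent beta-galactosidase reporter signal from transgenic T. cruzi replicating inside host cells; inhibitors lower the luminescence signal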
[4] = target: DNA dC->dU-editing enzyme APOBEC-3A (Homo sapiens, UniProt P31941); test: Dose Response confirmation of small molecule APOBEC3A DNA Deaminase Inhibitors via a fluorescence-based single-stranded DNA deaminase assay. [Related pubchem assays (depositor defined):AID493011, AID493024]; assay type: functional
Cytochrome P450 3A4 = Cytochrome P450 3A4 (Homo sapiens, UniProt P08684);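 further: CYP3A4 tested as one member of a cytochrome P450 panel screen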
Cytochrome P450 2C19 = Cytochrome P450 2C19 (Homo sapiens, UniProt P33261); test: Cytochrome panel assay with activity outcomes. Panel member name: p450-cyp2c19 Compounds with AC50 equal or less than 10 uM are considered active; assay type: functional
Cytochrome P450 2C9 = Cytochrome P450 2C9 (Homo sapiens, UniProt P11712)
[5] = target: T1, Polyadenylate-binding protein 1 (Homo sapiens, UniProt P11940); test: MLLE binding blockers, Cy5 peptide tracer – biochemical, fluorescence polarization, Cy5-PAM2 peptide, secondary, miRNA deadenylation inhibitor project, dose response (AID 602260); assay type: functional; conditions: read-out: IC50_Mean
[6] = target: T1, Polyadenylate-binding protein 1; test: MLLE domain peptide-binding blockers, IC50 – biochemical, fluorescence polarization, FITC-PAM2 peptide, dose response (AID 602259); assay type: functional; conditions: read-out: IC50_Mean
[7] = target: T2, Tyrosyl-DNA phosphodiesterase 2 (Homo sapiens, UniProt O95551); test: potency against TDP2 phosphodiesterase activity – biochemical, epi absorbance, IC50, dose response (AID 743297)
T2 sequence (O95551 whole entry): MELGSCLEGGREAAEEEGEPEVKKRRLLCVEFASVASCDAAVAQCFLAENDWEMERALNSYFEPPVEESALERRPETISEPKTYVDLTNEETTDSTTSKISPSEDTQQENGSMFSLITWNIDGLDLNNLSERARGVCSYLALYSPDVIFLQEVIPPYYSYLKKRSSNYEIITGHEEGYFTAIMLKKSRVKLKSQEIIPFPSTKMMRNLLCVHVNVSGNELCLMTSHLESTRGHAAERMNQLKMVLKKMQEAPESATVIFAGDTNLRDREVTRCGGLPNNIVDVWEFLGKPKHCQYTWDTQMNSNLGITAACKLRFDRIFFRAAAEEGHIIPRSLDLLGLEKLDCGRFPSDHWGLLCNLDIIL

[8] = target: T3, Histone-lysine N-methyltransferase NSD2 (Homo sapiens, UniProt O96028); assay type: biochemical
T3 sequence (O96028 whole entry): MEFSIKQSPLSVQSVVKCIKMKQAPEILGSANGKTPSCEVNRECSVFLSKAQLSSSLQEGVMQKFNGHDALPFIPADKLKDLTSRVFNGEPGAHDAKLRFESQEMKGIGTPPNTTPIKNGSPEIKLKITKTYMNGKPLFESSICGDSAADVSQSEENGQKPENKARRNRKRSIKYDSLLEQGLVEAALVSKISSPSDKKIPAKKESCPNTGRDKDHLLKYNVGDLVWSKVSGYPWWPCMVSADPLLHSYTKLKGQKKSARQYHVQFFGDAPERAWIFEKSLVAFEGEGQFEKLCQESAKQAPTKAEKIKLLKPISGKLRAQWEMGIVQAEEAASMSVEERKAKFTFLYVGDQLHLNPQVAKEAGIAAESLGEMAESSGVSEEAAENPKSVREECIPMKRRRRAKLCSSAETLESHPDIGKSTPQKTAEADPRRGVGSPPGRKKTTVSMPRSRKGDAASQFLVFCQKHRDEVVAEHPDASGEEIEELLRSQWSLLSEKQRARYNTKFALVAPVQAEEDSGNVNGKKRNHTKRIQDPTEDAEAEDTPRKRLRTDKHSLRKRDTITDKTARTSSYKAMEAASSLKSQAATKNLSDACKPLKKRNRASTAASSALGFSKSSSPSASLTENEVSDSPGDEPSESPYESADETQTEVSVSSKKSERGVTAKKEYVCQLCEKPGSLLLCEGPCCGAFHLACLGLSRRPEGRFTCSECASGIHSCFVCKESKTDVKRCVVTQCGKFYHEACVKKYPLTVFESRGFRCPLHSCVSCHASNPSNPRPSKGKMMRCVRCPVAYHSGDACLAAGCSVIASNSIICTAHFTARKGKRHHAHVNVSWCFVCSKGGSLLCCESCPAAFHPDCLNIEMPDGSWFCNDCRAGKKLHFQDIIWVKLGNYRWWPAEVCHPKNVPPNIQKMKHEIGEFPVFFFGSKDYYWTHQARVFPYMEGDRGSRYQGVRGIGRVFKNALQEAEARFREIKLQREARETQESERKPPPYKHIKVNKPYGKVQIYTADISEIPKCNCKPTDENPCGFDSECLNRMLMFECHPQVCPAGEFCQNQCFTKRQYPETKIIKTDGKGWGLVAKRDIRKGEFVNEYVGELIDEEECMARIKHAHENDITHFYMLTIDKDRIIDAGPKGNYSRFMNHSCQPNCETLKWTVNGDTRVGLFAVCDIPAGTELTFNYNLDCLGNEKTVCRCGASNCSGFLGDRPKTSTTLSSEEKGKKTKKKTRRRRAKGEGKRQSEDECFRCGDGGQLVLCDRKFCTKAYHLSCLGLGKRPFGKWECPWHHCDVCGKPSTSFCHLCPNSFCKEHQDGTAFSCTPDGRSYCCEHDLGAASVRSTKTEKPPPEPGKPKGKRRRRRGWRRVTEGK

[9] = target: T4, Mannose-6-phosphate isomerase (Homo sapiens, UniProt P34949); test: MPI inhibition at elevated mannose 6-phosphate – biochemical, fluorescence intensity, high mannose 6-phosphate, primary screen (AID 1220)
T4 sequence (P34949 whole entry): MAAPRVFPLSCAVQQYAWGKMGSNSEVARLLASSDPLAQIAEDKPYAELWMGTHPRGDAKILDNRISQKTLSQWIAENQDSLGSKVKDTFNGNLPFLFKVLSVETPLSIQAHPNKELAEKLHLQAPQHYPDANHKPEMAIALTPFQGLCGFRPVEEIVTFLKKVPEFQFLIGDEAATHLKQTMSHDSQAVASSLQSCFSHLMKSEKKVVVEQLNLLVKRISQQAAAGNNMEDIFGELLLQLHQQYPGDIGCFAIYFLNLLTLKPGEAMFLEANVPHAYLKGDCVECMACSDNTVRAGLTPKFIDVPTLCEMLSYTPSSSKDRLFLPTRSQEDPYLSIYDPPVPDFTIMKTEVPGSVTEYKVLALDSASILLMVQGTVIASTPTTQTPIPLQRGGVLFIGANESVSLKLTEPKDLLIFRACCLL

Cytochrome P450 2D6 = Cytochrome P450 2D6 (Homo sapiens, UniProt P10635);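 further: CYP2D6 member of a cytochrome P450 panel assay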
Paired box protein Pax-8 = Paired box protein Pax-8 (Homo sapiens, UniProt Q06710); test: PAX8 transcriptional activity inhibition in RMG-I – RMG-I cells, luciferase, cherry-pick, dose response (AID 687027); assay type: functional, cell-based;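 further: luciferase reporter driven by Pax8 target thyroperoxidase promoter measured by SteadyGlo luminescence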
[10] = OVCAR8 cell viability loss – plate reader, dry powder samples, PAX8 project, dose response (AID 743197); assay type: functional, cell-based; conditions: OVCAR-8
[11] = target: T5, Microphthalmia-associated transcription factor (Homo sapiens, UniProt O75030); test: reducers of TRPM1 reporter luminescence, concentration series – cell-based, SK-MEL-5, cherry-picked, set 3, MITF inhibitor project, dose response (AID 493073); assay type: functional;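 further: SK-MEL-5 melanoma cells with luciferase driven by the MITF target TRPM1 promoter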
T5 sequence (O75030 whole entry): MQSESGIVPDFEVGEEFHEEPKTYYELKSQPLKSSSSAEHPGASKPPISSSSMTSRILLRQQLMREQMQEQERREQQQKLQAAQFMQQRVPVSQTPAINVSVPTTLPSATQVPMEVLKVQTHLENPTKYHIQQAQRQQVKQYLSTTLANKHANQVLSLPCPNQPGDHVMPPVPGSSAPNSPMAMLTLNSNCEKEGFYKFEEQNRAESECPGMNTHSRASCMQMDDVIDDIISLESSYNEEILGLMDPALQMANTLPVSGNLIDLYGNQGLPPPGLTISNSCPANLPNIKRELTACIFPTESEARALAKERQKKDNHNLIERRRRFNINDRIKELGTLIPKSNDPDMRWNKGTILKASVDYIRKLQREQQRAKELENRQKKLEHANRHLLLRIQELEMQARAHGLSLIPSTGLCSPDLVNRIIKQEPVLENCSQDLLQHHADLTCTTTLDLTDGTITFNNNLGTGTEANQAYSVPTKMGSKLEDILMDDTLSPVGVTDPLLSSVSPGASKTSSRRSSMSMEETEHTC

Sequence of Cytochrome P450 2C19 (P33261 whole entry): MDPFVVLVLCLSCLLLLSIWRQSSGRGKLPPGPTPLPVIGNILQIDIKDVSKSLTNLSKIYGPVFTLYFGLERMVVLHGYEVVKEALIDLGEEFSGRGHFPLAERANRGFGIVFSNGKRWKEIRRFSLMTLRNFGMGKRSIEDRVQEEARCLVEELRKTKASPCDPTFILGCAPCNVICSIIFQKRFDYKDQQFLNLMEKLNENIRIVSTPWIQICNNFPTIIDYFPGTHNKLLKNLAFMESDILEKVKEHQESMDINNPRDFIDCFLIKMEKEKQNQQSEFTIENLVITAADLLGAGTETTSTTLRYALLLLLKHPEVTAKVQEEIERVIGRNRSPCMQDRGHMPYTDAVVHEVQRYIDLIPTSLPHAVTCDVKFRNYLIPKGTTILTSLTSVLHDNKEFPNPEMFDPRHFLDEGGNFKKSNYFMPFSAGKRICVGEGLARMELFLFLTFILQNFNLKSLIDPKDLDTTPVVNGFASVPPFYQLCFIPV
Sequence of Cytochrome P450 2C9 (P11712 whole entry): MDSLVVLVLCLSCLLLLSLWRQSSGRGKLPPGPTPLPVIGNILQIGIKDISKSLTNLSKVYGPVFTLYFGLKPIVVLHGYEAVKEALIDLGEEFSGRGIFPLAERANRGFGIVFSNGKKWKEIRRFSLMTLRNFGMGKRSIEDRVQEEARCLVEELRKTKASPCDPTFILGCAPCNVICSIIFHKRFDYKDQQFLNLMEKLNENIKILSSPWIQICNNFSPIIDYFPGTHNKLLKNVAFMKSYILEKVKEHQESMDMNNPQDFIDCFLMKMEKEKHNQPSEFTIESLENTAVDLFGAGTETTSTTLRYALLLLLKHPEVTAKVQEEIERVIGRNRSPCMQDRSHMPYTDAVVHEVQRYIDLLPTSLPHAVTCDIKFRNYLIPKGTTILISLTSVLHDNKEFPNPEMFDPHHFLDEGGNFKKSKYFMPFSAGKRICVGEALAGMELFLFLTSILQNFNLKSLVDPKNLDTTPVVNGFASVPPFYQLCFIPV
Sequence of Paired box protein Pax-8 (Q06710 whole entry): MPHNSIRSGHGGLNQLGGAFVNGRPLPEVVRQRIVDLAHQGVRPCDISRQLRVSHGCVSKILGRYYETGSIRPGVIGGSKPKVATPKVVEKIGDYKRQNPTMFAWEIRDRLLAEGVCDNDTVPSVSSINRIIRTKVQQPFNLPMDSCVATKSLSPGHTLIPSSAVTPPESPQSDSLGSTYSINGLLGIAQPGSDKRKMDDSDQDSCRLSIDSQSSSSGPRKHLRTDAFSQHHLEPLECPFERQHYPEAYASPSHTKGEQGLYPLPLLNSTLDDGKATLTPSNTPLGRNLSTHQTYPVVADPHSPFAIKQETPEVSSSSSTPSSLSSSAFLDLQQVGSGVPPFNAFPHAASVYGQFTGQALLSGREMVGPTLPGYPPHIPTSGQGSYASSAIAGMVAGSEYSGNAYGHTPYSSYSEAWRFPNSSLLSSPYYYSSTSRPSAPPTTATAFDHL
T1 sequence (P11940 whole entry, the tested form may be a part): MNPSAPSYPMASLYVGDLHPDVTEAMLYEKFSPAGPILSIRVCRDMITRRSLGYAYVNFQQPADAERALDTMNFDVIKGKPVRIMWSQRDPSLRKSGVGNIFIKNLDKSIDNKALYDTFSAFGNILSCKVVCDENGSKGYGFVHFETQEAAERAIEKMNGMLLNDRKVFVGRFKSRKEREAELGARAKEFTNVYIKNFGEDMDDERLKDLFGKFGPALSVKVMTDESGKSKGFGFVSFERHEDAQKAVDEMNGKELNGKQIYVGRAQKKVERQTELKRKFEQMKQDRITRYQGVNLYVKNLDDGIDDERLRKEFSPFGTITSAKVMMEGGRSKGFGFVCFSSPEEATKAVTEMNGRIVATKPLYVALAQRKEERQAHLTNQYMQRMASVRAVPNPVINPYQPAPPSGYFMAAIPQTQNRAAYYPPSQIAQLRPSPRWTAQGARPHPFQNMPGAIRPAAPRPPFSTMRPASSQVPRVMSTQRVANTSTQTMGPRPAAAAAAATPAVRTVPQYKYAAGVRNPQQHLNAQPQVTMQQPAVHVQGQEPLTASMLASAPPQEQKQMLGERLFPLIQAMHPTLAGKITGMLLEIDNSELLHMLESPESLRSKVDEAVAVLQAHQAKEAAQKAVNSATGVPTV
Sequence of DNA dC->dU-editing enzyme APOBEC-3G (Q9HC16 whole entry): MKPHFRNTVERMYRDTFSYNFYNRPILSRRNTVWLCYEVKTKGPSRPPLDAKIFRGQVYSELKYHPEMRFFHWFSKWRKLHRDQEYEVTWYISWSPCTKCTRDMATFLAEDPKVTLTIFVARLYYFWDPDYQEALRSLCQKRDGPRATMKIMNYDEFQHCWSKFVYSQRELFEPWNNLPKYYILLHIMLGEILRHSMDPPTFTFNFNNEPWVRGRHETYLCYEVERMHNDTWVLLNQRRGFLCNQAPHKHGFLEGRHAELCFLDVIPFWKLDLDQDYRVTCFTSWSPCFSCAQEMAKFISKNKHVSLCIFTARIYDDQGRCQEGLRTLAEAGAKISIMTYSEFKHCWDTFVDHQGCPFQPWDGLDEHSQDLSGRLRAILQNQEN
Sequence of Cytochrome P450 3A4 (P08684 whole entry): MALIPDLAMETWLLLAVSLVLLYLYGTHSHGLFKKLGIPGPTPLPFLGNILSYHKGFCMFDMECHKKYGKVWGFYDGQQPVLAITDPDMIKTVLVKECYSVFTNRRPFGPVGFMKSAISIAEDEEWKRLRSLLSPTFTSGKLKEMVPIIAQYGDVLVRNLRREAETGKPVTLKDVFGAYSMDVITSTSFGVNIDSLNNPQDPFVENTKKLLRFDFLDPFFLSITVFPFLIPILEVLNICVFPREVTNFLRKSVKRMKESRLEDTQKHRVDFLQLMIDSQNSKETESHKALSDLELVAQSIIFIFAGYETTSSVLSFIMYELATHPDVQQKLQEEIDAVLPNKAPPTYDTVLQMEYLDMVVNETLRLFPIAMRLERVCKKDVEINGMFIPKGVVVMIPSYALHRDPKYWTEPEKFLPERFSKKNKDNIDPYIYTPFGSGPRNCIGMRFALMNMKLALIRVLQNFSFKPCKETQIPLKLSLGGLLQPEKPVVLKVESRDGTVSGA
Sequence of Cytochrome P450 2D6 (P10635 whole entry): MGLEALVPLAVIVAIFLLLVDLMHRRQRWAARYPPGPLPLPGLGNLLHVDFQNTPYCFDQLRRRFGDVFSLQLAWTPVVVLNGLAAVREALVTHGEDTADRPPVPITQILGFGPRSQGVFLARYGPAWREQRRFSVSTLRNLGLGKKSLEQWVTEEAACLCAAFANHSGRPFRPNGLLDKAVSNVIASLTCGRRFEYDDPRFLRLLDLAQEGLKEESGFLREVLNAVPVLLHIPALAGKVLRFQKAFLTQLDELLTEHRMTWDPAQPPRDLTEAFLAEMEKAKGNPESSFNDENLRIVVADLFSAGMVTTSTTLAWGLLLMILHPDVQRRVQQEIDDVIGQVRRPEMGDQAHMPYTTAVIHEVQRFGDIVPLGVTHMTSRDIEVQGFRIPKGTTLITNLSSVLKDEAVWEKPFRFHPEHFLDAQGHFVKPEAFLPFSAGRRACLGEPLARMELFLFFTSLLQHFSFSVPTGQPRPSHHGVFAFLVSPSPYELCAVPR
Sequence of DNA dC->dU-editing enzyme APOBEC-3A (P31941 whole entry): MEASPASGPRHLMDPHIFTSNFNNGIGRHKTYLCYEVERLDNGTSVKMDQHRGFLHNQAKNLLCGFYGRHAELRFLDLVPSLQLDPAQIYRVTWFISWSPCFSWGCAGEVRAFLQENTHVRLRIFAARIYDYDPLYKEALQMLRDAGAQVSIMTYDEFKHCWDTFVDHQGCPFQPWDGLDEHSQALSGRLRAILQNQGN

Structure (SMILES): CN1CCC(N(C)S(=O)(=O)c2ccc(NC(=O)COc3ccc(F)cc3)cc2)CC1
IC50 [1]: 3.53 µM (active)
EC50 [2]: > 60 µM (not active)
EC50 [3]: 0.835 µM (active)
IC50 [4]: 3.71 µM (active)

Structure (SMILES): C/C(Cl)=C\Cn1c(N2CCCC2)nc2c1c(=O)[nH]c(=O)n2C
AC50 (Cytochrome P450 3A4): 15.8 µM (inconclusive)
AC50 (Cytochrome P450 2C19): inconclusive
AC50 (Cytochrome P450 2C9): inconclusive

Structure (SMILES): COCC(C)N1C(=O)Cc2c1nc(N)c1c(N)nc(N3CCN(c4ccccc4F)CC3)c(C#N)c21 (configuration not stated)
IC50 [9]: > 50 µM (not active)

Structure (SMILES): CC1CCN(C(=O)C2CCN(S(=O)(=O)c3cccc4nonc34)CC2)CC1
AC50 (Cytochrome P450 2C9): inconclusive

Structure (SMILES): C[C@@H]1CCCCO[C@H](CN(C)Cc2ccc(C(F)(F)F)cc2)[C@@H](C)CN([C@@H](C)CO)C(=O)c2cc(NS(=O)(=O)c3ccc(Cl)cc3)ccc2O1
AC50 (Paired box protein Pax-8): 6.82 µM (active)
AC50 [10]: 40.7 µM (active)

The next lines start with the values.

IC50 [5]: > 66 µM (inactive)
IC50 [6]: > 66 µM (inactive)
IC50 [7]: > 128 µM (inactive)
AC50 [8]: 15 µM (active)
Structure (SMILES): C=CCN(CC=C)C(=S)Nc1ccc2nsnc2c1

AC50 (Cytochrome P450 2C19; read-out: AC50): 7.94 µM (inconclusive)
AC50 (Cytochrome P450 2C9): inconclusive
AC50 (Cytochrome P450 2D6): 31.6 µM (inconclusive)
Structure (SMILES): CCOc1ccc(S(=O)(=O)NCc2ccc(F)cc2)c2cccnc12

AC50 (Paired box protein Pax-8): 6.29 µM (active)
AC50 [11]: 4.3 µM (active)
Structure (SMILES): COc1ccccc1NS(=O)(=O)c1cccc(C(=O)N/N=C/c2ccc([N+](=O)[O-])o2)c1

AC50 (Cytochrome P450 2C19; read-out: AC50): 8.91 µM (inconclusive)
AC50 (Cytochrome P450 2C9): inconclusive
Structure (SMILES): Cc1nc(-c2cccnc2)sc1C(=O)Nc1ccc(F)cc1F
